Source: ChEMBL document CHEMBL5375997, “Small Molecule Inhibitors Targeting the "Undruggable" Survivin: The Past, Present, and Future from a Medicinal Chemist's Perspective” (J Med Chem, 2023)

Tests used:
[1] = tested on: M14; experiment: Antiproliferative activity against human M14 cells assessed as reduction cell viability incubated for 48 hrs by MTT assay; format: functional, cell-based; conditions: M14, 48 h
[2] = tested on: A-375; experiment: Cytotoxicity against human A-375 cells assessed as inhibition of cell growth; format: functional, cell-based
[3] = tested on: PC-3; experiment: Cytotoxicity against human PC-3 cells assessed as inhibition of cell growth; format: functional, cell-based
[4] = tested on: DU-145; experiment: Cytotoxicity against human DU-145 cells assessed as inhibition of cell growth; format: functional, cell-based
[5] = tested on: M14; experiment: Antiproliferative activity against human M14 cells assessed as inhibition of cell growth measured after 48 hrs by SRB assay; format: functional, cell-based; conditions: M14, 48 h
[6] = tested on: HepG2; experiment: Cytotoxicity against human HepG2 cells assessed as reduction in cell viability incubated for 72 hrs by SRB assay; format: functional, cell-based; conditions: HepG2, 72 h
[7] = tested on: MDA-MB-231; experiment: Cytotoxicity against human MDA-MB-231 cells assessed as inhibition of cell growth incubated for 72 hrs by SRB assay; format: functional, cell-based; conditions: MDA-MB-231, 72 h
[8] = tested on: PC-3; experiment: Cytotoxicity against human PC-3 cells assessed as reduction in cell growth incubated for 72 hrs by SRB assay; format: functional, cell-based; conditions: PC-3, 72 h
[9] = tested on: NCI-H69; experiment: Antiproliferative activity against human NCI-H69 cells assessed as reduction in cell growth; format: functional, cell-based
[10] = tested on: PC-3; experiment: Anticancer activity against human PC-3 cells assessed as cell growth inhibition by sulforhodamine B assay; format: functional, cell-based
[11] = tested on: LNCaP C4-2; experiment: Cytotoxicity against human LNCaP C4-2 cells assessed as cell growth inhibition incubated for 24 hrs by MTT assay; format: functional, cell-based; conditions: LNCaP C4-2, 24 h
[12] = tested on: PC-3; experiment: Cytotoxicity against human PC-3 cells assessed as reduction in cell viability incubated for 24 hrs by MTT assay; conditions: PC-3, 24 h
[13] = tested on: LNCaP C4-2; experiment: Antiproliferative activity against human LNCaP C4-2 cells assessed as cell growth inhibition; format: functional, cell-based
[14] = tested on: DU-145; experiment: cells; conditions: Homo sapiens, DU-145, 24 h
Description: Cytotoxicity against human DU-145 cells assessed as inhibition of cell growth incubated for 24 hrs by MTT assay

[15] = Oral bioavailability in mouse plasma; format: ADME, organism-based
[16] = Cmax in […] at 1 mg/kg, iv and measured upto 24 hrs by LC/MS/MS analysis; format: ADME, organism-based; design: time < 24 hrs, dose 1 mg/kg, route iv; conditions: in vivo
[17] = Cmax in […] at 1 mg/kg, po and measured upto 24 hrs by LC/MS/MS analysis; format: ADME, organism-based; design: time < 24 hrs, dose 1 mg/kg, route po; conditions: in vivo
[18] = AUC in mouse plasma at 3 mg/kg, iv measured upto 24 hrs by LC-MS/MS analysis; format: ADME, organism-based; design: dose 3 mg/kg, time < 24 hrs, route iv; conditions: in vivo
[19] = Cytotoxicity against human HaCaT cells assessed as reduction in cell viability; format: toxicity, cell-based
[20] = tested on: L1210; experiment: Antiproliferative activity against mouse L1210 cells assessed as reduction in cell viability incubated for 48 hrs by MTT assay; format: functional, cell-based; conditions: L1210, 48 h
[21] = tested on: EL4; experiment: Cytotoxicity against mouse EL4 cells assessed as inhibition of cell proliferation incubated for 72 hrs by MTT assay; format: functional, cell-based; conditions: EL4, 72 h
[22] = tested on: MCF7; experiment: Cytotoxicity against human MCF7 cells assessed as inhibition of cell growth by MTT assay; format: functional, cell-based
[23] = Cytotoxicity against human HepG2 cells assessed as reduction in cell viability by MTT assay; format: functional, cell-based
[24] = tested on: HeLa; experiment: Cytotoxicity against human HeLa cells assessed as inhibition of cell growth by MTT assay; format: functional, cell-based
[25] = tested on: HCT-116; experiment: Cytotoxicity against human HCT-116 cells assessed as reduction in cell viability by MTT assay; format: functional, cell-based
[26] = tested on: A549; experiment: Cytotoxicity against human A549 cells assessed as reduction in cell viability by MTT assay; format: functional, cell-based
[27] = tested on: GBM528 (human); experiment: Antiproliferative activity against human GBM528 cells assessed as sphere formation inhibition
[28] = Half life in human plasma after iv dosing; conditions: in vivo
[29] = tested on: SK-MEL-5; experiment: Antiproliferative activity against human SK-MEL-5 cells assessed as reduction in cell viability; format: functional, cell-based
[30] = Clearance in […] at 3 mg/kg, iv incubated for 24 hrs by LC-MS/MS analysis; format: ADME, organism-based; conditions: in vivo
[31] = tested on: A-375; experiment: Anticancer activity against human A375 cells assessed as reduction in cell viability incubated for 72 hrs by MTT assay; format: functional, cell-based; conditions: A-375, 72 h
[32] = Tmax in human plasma at 10 mg/kg, iv measured after 24 hrs; format: ADME, organism-based
[33] = Half life in iv dosed human plasma; format: ADME, organism-based
[34] = tested on: DU-145; experiment: Cytotoxicity against human DU-145 cells assessed as reduction in cell viability by SRB assay; format: functional, cell-based
[35] = tested on: CWR22R; experiment: Cytotoxicity against human 22Rv1 cells assessed as cell growth inhibition; format: functional, cell-based
[36] = tested on: A549; experiment: Antiproliferative activity against human A549 cells assessed as reduction in cell viability by MTT assay; format: functional, cell-based
[37] = tested on: NCI-H460; experiment: Antiproliferative activity against human NCI-H460 cells assessed as reduction in cell viability incubated for 24 hrs by MTT assay; format: functional, cell-based; conditions: NCI-H460, 24 h
[38] = tested on: HCT-116; experiment: Antiproliferative activity against human HCT-116 cells assessed as reduction in cell proliferation measured after 72 hrs by MTT assay; format: functional, cell-based; conditions: HCT-116, 72 h
[39] = tested on: EKVX; experiment: Antiproliferative activity against human EKVX cells assessed as cell growth inhibition incubated for 72 hrs by MTT assay; format: functional, cell-based
[40] = Half life in CD1 mouse at 1 mg/kg, iv by LC-MS/MS analysis; format: ADME, organism-based; conditions: in vivo
[41] = tested on: SW-620; experiment: Antiproliferative activity against human SW620 cells assessed as reduction in cell viability incubated for 72 hrs by MTT assay; format: functional, cell-based; conditions: SW-620, 72 h
[42] = tested on: HCT-8; experiment: Antiproliferative activity against human HCT-8 cells assessed as inhibition of cell growth; format: functional, cell-based

Oc1c(CN2CCCC2)cc(COCc2ccccc2)c2cccnc12
IC50 [1]: 2.5 µM
IC50 [2]: 1.6 µM
IC50 [3]: 0.7 µM
IC50 [4]: 3.4 µM
IC50 [5]: 3.2 µM

N#Cc1c(-c2ccccc2)cc(-c2ccc(OCc3ccc(F)cc3)cc2)[nH]c1=S
IC50 [6]: 23 µM
IC50 [7]: 23 µM
IC50 [8]: 23 µM

N#Cc1c(-c2ccccc2)cc(-c2ccc(OCc3ccc(F)cc3)cc2)nc1N
IC50 [6]: > 100 µM
IC50 [7]: > 100 µM
IC50 [8]: > 100 µM

Oc1ccc(CCCc2ccc(O)c(O)c2)cc1O
IC50 [9]: > 100 µM

Oc1ccc(CCCCCc2ccc(O)c(O)c2)cc1O
IC50 [9]: 3 µM

COc1ccc(-c2cc(-c3ccc(OCc4ccc(F)cc4)cc3)nc(N)c2C#N)cc1
IC50 [6]: > 100 µM
IC50 [7]: > 100 µM
IC50 [8]: > 100 µM

Nc1nonc1C(=O)N/N=C1\c2ccccc2-c2nc3nonc3nc21
IC50 [10]: 4.3 µM
IC50 [11]: 1.9 µM
IC50 [12]: 4.3 µM
IC50 [13]: 1.9 µM

Cc1cccc(Nc2nc3nonc3nc2N/N=C/c2cc3c(cc2[N+](=O)[O-])OCO3)c1C
IC50 [14]: 2.6 µM
IC50 [12]: 2.1 µM

COc1ccc(C[C@@H](C)[C@@H](C)Cc2ccc(OC)c(OC)c2)cc1OC [TERAMEPROCOL]
bioavailability [15]: 88.3%
Cmax [16]: 1060 ng/mL
Cmax [17]: 442 ng/mL
AUC [18]: 2980 ng·h/mL
IC50 [19]: 85 µM

Oc1cc(CCCCc2cc(O)c(O)c(O)c2)cc(O)c1O
IC50 [9]: 6 µM

O=C1N=c2ccc(Nc3nc4nonc4nc3N/N=C/c3ccccc3OCc3ccc(Cl)cc3Cl)cc2=N1
IC50 [14]: 60.3 µM
IC50 [12]: 49.8 µM

CO[C@]12CC(=O)O[C@]13C(=O)c1c(cc4cc(O)c5c(c4c1O)CN(C)C5=O)C(=O)[C@]3(O[C@H]1CC[C@H](O)[C@H](C)O1)CO2
IC50 [20]: 0.153 µM
IC50 [21]: 0.112 µM

N#Cc1c(-c2ccc(F)cc2)cc(-c2ccc(OCc3ccc(F)cc3)cc2)[nH]c1=O
IC50 [6]: 14.4 µM
IC50 [7]: 14.4 µM
IC50 [8]: 14.4 µM

N#Cc1c(-c2ccc(F)cc2)cc(-c2ccc(OCc3ccc(F)cc3)cc2)[nH]c1=S
IC50 [6]: 23 µM
IC50 [7]: 23 µM
IC50 [8]: 23 µM

CC[C@@]1(O)C(=O)OCc2c1cc1n(c2=O)Cc2cc3c(-c4ccc(C(F)(F)F)cc4)c4c(cc3nc2-1)OCO4
IC50 [22]: 0.78 µM
IC50 [23]: 0.78 µM
IC50 [24]: 0.78 µM
IC50 [25]: 0.78 µM
IC50 [26]: 0.78 µM

COc1ccc(-c2cc(-c3ccc(OCc4ccc(F)cc4)cc3)[nH]c(=S)c2C#N)cc1
IC50 [6]: 23 µM
IC50 [7]: 23 µM
IC50 [8]: 23 µM

Oc1ccc(CCCCc2ccc(O)cc2)cc1
IC50 [9]: 3.9 µM

N#Cc1c(-c2ccc(Br)cc2)cc(-c2ccc(OCc3ccc(F)cc3)cc2)nc1N
IC50 [6]: 30 µM
IC50 [7]: 30 µM
IC50 [8]: 30 µM

N#Cc1c(-c2ccccc2)cc(-c2ccc(OCc3ccc(F)cc3)cc2)[nH]c1=O
IC50 [6]: 14.4 µM
IC50 [7]: 14.4 µM
IC50 [8]: 14.4 µM

CCOC(=O)c1ccc(Nc2nc3nonc3nc2N/N=C/c2c[nH]nc2-c2ccccc2)cc1
IC50 [14]: 3.5 µM

N#Cc1c(-c2ccc(Cl)cc2)cc(-c2ccc(OCc3ccc(F)cc3)cc2)[nH]c1=O
IC50 [6]: 14.4 µM
IC50 [7]: 14.4 µM
IC50 [8]: 14.4 µM

Cc1cccc(Nc2nc3nonc3nc2N/N=C/c2ccc(-c3ccc(Cl)c([N+](=O)[O-])c3)o2)c1C
IC50 [14]: 7.2 µM
IC50 [12]: 4.8 µM

N#Cc1c(-c2ccc(Cl)cc2)cc(-c2ccc(OCc3ccc(F)cc3)cc2)nc1N
IC50 [6]: > 100 µM
IC50 [7]: > 100 µM
IC50 [8]: > 100 µM

N#Cc1c(-c2cc(OCc3ccccc3)cc(OCc3ccccc3)c2)cc(-c2cc(Cl)ccc2O)[nH]c1=O
IC50 [27]: 31.2 µM

COCCn1c2c([n+](Cc3cnccn3)c1C)C(=O)c1ccccc1C2=O.[Br-] [SEPANTRONIUM BROMIDE]
half-life [28]: 17.2 h
IC50 [29]: 0.004 µM
clearance [30]: 795 mL/min/kg
IC50 [31]: 0.006 µM
Cmax [16]: 10.7 ng/mL
Tmax [32]: 46 h
half-life [33]: 26.3 h
AUC [18]: 1440 ng·h/mL
IC50 [34]: 0.004 µM
IC50 [35]: 0.011 µM

N#Cc1c(-c2ccc(Cl)cc2)cc(-c2ccc(OCc3ccc(F)cc3)cc2)[nH]c1=S
IC50 [6]: 23 µM
IC50 [7]: 23 µM
IC50 [8]: 23 µM

COc1ccc(-c2cc(-c3ccc(OCc4ccc(F)cc4)cc3)[nH]c(=O)c2C#N)cc1
IC50 [6]: 6.01 µM
IC50 [7]: 3.59 µM
IC50 [8]: 4.46 µM

COc1cccc(Nc2nc3ccccc3nc2Nc2cccc(OC)c2OC)c1OC
IC50 [11]: 17.6 µM
IC50 [12]: 24.8 µM

CC[C@@]1(O)C(=O)OCc2c1cc1n(c2=O)Cc2cc3cc4c(cc3nc2-1)OCO4
IC50 [36]: 0.009 µM
IC50 [37]: 0.003 µM
IC50 [38]: 0.005 µM
clearance [30]: 900 mL/min/kg
Cmax [16]: 43 ng/mL
IC50 [39]: 0.006 µM
AUC [18]: 82 ng·h/mL
half-life [40]: 1.8 h
IC50 [41]: 0.009 µM
IC50 [42]: 0.005 µM

Cc1cccc(Nc2nc3nonc3nc2N/N=C/c2ccc(-c3cccc(C(=O)O)c3)o2)c1C
IC50 [14]: 25 µM
IC50 [12]: 20 µM

N#Cc1c(-c2ccc(Br)cc2)cc(-c2ccc(OCc3ccc(F)cc3)cc2)[nH]c1=O
IC50 [6]: 14.4 µM
IC50 [7]: 14.4 µM
IC50 [8]: 14.4 µM

N#Cc1c(-c2ccc(Br)cc2)cc(-c2ccc(OCc3ccc(F)cc3)cc2)[nH]c1=S
IC50 [6]: 23 µM
IC50 [7]: 23 µM
IC50 [8]: 23 µM

Cc1ccc(-c2ccc(/C=N/Nc3nc4nonc4nc3Nc3ccc(Br)cc3)o2)cc1Cl
IC50 [14]: 3.3 µM
IC50 [12]: 3.5 µM
